# Reference: US20210171576A1, “METHODS FOR TREATING CANCER WITH ACYLDEPSIPEPTIDE ANALOGS” (priority 2018, published 2021)
# Where a SMILES comes first, the peptide text is derived from it. Bridges are numbered along the chain shown (N, C = ends). [ ]: non-standard residue; d: D form. The star is where a group is joined. Phe(3,5-F2) = N[C@@H](Cc1cc(F)cc(F)c1)C(=O)O; Heptenoyl(2E) = CCCC/C=C/C(=O)*; aThr = C[C@H](O)[C@H](N)C(=O)O; Pip = O=C(O)[C@@H]1CCCCN1
# Key:
# HsCIpP [1] = target: T1, HsCIpP (Homo sapiens, UniProt Q16740, P57S); test: Peptidase activity assay (Ac-WLA-AMC cleavage) with ADEP; assay type: biochemical; conditions: 6 μM HsCIpP, 100 μM Ac-WLA-AMC
# T1 construct: 2x(His6-thrombin)-SUMO (N, cleaved yes); made in house; host or cells: E. coli (SG1146 stated for HsClpP; 'a similar protocol' for HsClpX)
# Description: The peptidase activity of purified, untagged HsCIpP was assessed by monitoring the degradation of peptidyl substrates labelled with a C-terminal 7-amido-4-methylcoumarin (AMC) fluorophore. […] To identify a suitable peptidyl substrate, commercially available AMC-labelled peptides were purchased and tested for degradation by HsCIpP. These include N-acetyl-Trp-Leu-Ala-AMC (Ac-WLA-AMC) (R&D Systems) that was also previously used by Csizmadia et (Csizmadia et al., 2016), benzyloxycarbonyl-Arg-Arg-AMC (Z-RR-AMC) (Sigma-Aldrich), N-acetyl-Leu-Glu-His-Asp-AMC […] (Sigma-Aldrich), N-acetyl-Val-Glu-Thr-Asp-AMC (Ac-VETD-AMC) (Sigma-Aldrich), and benzyloxycarbonyl-Leu-Leu-Leu-AMC (Z-LLL-AMC) (Sigma-Aldrich). Suc-LY-AMC (MP Biomedicals) was also tested as a negative control. All stock solutions of the AMC-labelled peptides were prepared by dissolving the lyophilized peptides in DMSO at 90 mM or a lower concentration recommended by the manufacturer. […] Degradation of the peptidyl substrates and subsequent release of the free AMC moiety was monitored by fluorescence with λex=360 nm and λem=440 nm using the EnSpire 2300 Multilabel Reader (Perkin-Elmer) set to perform a reading every 30 s with 20 flashes. A total of 240 readings were collected for each of three independent replicates prepared for each peptidyl substrate. […]
# Initial degradation rates data were analyzed using the Hill model. […]
# HsCIpP [2] = target: T1, HsCIpP; test: Protease activity assay (casein-FITC degradation) with ADEP, independent of HsCIpX; assay type: biochemical; conditions: 3 μM HsCIpP, 10 μM casein-FITC, no HsCIpX; read-out: K0.5 (microscopic apparent dissociation constant), protease activity
# Description: The protease activity of purified HsCIpP was assessed by monitoring the degradation of bovine milk casein labelled with fluorescein isothiocyanate (casein-FITC) (Sigma-Aldrich) in the presence of ADEP and/or purified HsCIpX. All reactions were carried out in 25 mM HEPES, pH 7.5, 35 mM KCl, 25 mM MgCl2, 0.03% Tween-20, 10% glycerol, and 1 mM DTT, supplemented with 16 mM creatine phosphate and 300 μM ATP. HsCIpP was used at 3 μM (final monomeric concentration) and casein-FITC was added at the final concentration of 10 μM. 13 U of creatine phosphokinase (Sigma-Aldrich) was also added for ATP regeneration. DMSO was present at 1% (v:v) final concentration in the experiments that involve the use of ADEP analogs. All reactions were carried out with 150 μL of the reaction mix per well in a 96-well black flat-bottom plate at 37° C. Degradation of casein-FITC and subsequent release of the free FITC moiety was monitored by fluorescence with λex=494 nm and λem=518 nm using the EnSpire 2300 Multilabel Reader set to perform a reading every 40 s with 20 flashes. A total of 100 readings were collected in each experiment. […]
# The effect of ADEP in activating HsCIpP was assessed via the degradation of casein-FITC by HsCIpP independent of HsCIpX. […] Initial rates data were collected and analyzed using the Hill equation above to determine Vmax, h and K0.5 for each ADEP analog. […]
# HeLa (regular) cells = test: Cytotoxicity, SRB staining
# Description: To assess the cytotoxicity of ADEP analogs, cells were seeded at 1×10^3 or 2×10^3 cells in 50 μL per well on sterile 96-well flat-bottom tissue culture plates (VWR). Growth media without any cells was included as a control. Cells were grown for at least 24 hours to allow proper adherence to the growth surface. Afterwards, ADEP analogs were serially diluted and introduced to the tissue cultures via fresh growth media at 50 μL per well. Inclusion of activators/DMSO brought the final DMSO concentration of the growth media up to a maximum of 0.5% (v:v). […] A total of four independent replicates were prepared for each cell line and for each growth condition used. Cells were grown in the presence of ADEP/DMSO for 72 hours.
# To assess cell survival, live adherent cells were fixed with 10% (w:v) trichloroacetic acid (TCA) at 4° C. for 1-2 hours. The tissue culture plates were then rinsed with water to remove dead cells and cell debris and air-dried overnight. […] Absorbance at λ=510 nm (A510) was then measured using the EnSpire 2300 Multilabel Reader. […]
# (§1) To determine the IC50 for the ADEP analogs, relative cell viability (RCV) values were calculated by normalizing the A510 readings in ADEP-containing sample to the DMSO-only control. […]
# [3] = test system: HEK293 T-REx CLPP^−/− cells; test: Cytotoxicity, SRB staining, 72 hours; conditions: CLPP^−/− cells lacking endogenous HsCIpP
# Description: To assess the cytotoxicity of ADEP analogs, cells were seeded at 1×10^3 or 2×10^3 cells in 50 μL per well on sterile 96-well flat-bottom tissue culture plates (VWR). Growth media without any cells was included as a control. Cells were grown for at least 24 hours to allow proper adherence to the growth surface. Afterwards, ADEP analogs were serially diluted and introduced to the tissue cultures via fresh growth media at 50 μL per well. Inclusion of activators/DMSO brought the final DMSO concentration of the growth media up to a maximum of 0.5% (v:v). […] A total of four independent replicates were prepared for each cell line and for each growth condition used. […]
# To assess cell survival, live adherent cells were fixed with 10% (w:v) trichloroacetic acid (TCA) at 4° C. for 1-2 hours. […] Absorbance at λ=510 nm (A510) was then measured using the EnSpire 2300 Multilabel Reader. […]
# as §1
# Assessment of cytotoxicity of ADEP-14 on human breast cancer cell lines (MDA-MB-231 WT, MDA-MB-231 CLPP-KD, MDA-MB-468, and MCF-7) and HEK cells (HEK293 T-Rex and HEK293 T-REx CLPP) were determined using the methods as described above in Example 1. […] Sulforhodamine B (SRB) staining method was used to quantify cell survival.
# T1 sequence (Q16740 57-277 P57S): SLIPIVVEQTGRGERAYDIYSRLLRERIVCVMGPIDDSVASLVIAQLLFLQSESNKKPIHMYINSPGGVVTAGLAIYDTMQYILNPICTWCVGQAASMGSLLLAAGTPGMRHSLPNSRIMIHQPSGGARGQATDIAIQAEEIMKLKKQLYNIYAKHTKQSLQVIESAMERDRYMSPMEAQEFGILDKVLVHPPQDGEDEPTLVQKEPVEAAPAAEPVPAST
structure (smiles),measurement,setting,value
"CCCC/C=C/C(=O)N[C@@H](Cc1cc(F)cc(F)c1)C(=O)N[C@@H]1C(=O)N2CCC[C@H]2C(=O)N2CCCC[C@H]2C(=O)N[C@@H](C)C(=O)N2CCC[C@H]2C(=O)O[C@H]1C [ADEP-41] ({Heptenoyl(2E)}-[Phe(3,5-F2)][aThr]P[Pip]AP; ester 2-C)","Hill coefficient (h), peptidase activity",HsCIpP [1],1.5
same,Kd,HsCIpP [2],120 nM
same,IC50 compared across cell lines,HeLa (regular) cells,similar
same,sensitivity to ADEP-induced cytotoxicity,[3],resistant
